In the NIST ThermoML archive (doi:10.1021/je900570e):
Values joined by “and” are separate entries in the source; they are usually repeats but may differ in a detail not shown here. Equal values may be shown once. Numbers after ± are expanded uncertainties.

What was measured:
[1] = xn = mol fraction of the nth substance listed; settings: Liquid; for viscosity / speed of sound: 101 kPa; for viscosity: Capillary tube (Ostwald / Ubbelohde) method; for speed of sound: Frequency=2 MHz, Pulse-echo method; for mass density: 101.33 kPa, Vibrating tube method
[2] = Liquid; for viscosity / speed of sound: 101 kPa; for viscosity: Capillary tube (Ostwald / Ubbelohde) method; for speed of sound: Frequency=2 MHz, Pulse-echo method; for mass density: 101.33 kPa, Vibrating tube method

ClC(Cl)C(Cl)Cl [1,1,2,2-tetrachloroethane] + N#CCc1ccccc1
[1], x2 = 0
Settings	mass density [kg/m3]	speed of sound [m/s]	viscosity [mPa·s]
303.15 K	1579.6 ± 1.4	1134.7 ± 7	1.456 ± 0.017
308.15 K	1570.6 ± 1.4	1115.5 ± 6.9	1.354 ± 0.017
313.15 K	1563.7 ± 1.4	1095.5 ± 6.8	1.261 ± 0.016

ClCC(Cl)Cl [1,1,2-trichloroethane]
[2]
Settings	mass density [kg/m3]	speed of sound [m/s]	viscosity [mPa·s]
298.15 K	–	–	1.105 ± 0.016
303.15 K	1425 ± 1.8	1129.2 ± 7.1	1.019 ± 0.016
308.15 K	1416.1 ± 1.8	1115.9 ± 7	0.9483 ± 0.015
313.15 K	1409.6 ± 1.8	1096.1 ± 6.9	0.8888 ± 0.015

ClC(Cl)=C(Cl)Cl [tetrachloroethene]
[2]
Settings	mass density [kg/m3]	speed of sound [m/s]	viscosity [mPa·s]
298.15 K	1614.8 ± 0.8	–	0.847 ± 0.012
303.15 K	1607.2 ± 0.8	1028 ± 6.3	0.7971 ± 0.012
308.15 K	1597.9 ± 0.8	1014 ± 6.2	0.7657 ± 0.012
313.15 K	1590.6 ± 0.8	996.6 ± 6.1	0.7395 ± 0.012

N#CCc1ccccc1 [benzeneacetonitrile] + ClCC(Cl)Cl
[1], x1 = 1
Settings	mass density [kg/m3]	speed of sound [m/s]	viscosity [mPa·s]
303.15 K	1008.8 ± 0.9	1519.2 ± 9.4	1.761 ± 0.023
308.15 K	1004.1 ± 0.8	1512.9 ± 9.3	1.602 ± 0.021
313.15 K	999.5 ± 0.8	1503.4 ± 9.3	1.489 ± 0.02

ClC=C(Cl)Cl [trichloroethene]
[2]
Settings	mass density [kg/m3]	speed of sound [m/s]	viscosity [mPa·s]
298.15 K	1455.9 ± 0.6	–	0.527 ± 0.011
303.15 K	1447.5 ± 0.6	1014.7 ± 6.2	0.5172 ± 0.011
308.15 K	1437.8 ± 0.6	993.7 ± 6.1	0.4992 ± 0.011
313.15 K	1430.4 ± 0.6	982 ± 6	0.4833 ± 0.011

ClC(Cl)=C(Cl)Cl [tetrachloroethene] + N#CCc1ccccc1
[1], x2 = 0
Settings	mass density [kg/m3]	speed of sound [m/s]	viscosity [mPa·s]
303.15 K	1607.2 ± 0.8	1028 ± 6.3	0.7971 ± 0.012
308.15 K	1597.9 ± 0.8	1014 ± 6.2	0.7657 ± 0.012
313.15 K	1590.6 ± 0.8	996.6 ± 6.1	0.7395 ± 0.012

ClCCCl [1,2-dichloroethane]
[2]
Settings	mass density [kg/m3]	speed of sound [m/s]	viscosity [mPa·s]
298.15 K	1246.7 ± 0.4	–	0.776 ± 0.012
303.15 K	1238.7 ± 0.4	1174 ± 7.2	0.7237 ± 0.012
308.15 K	1230.5 ± 0.4	1164.8 ± 7.1	0.6737 ± 0.011
313.15 K	1223.7 ± 0.4	1153.5 ± 7	0.6419 ± 0.011

N#CCc1ccccc1 [benzeneacetonitrile]
[2]
Settings	mass density	speed of sound [m/s]	viscosity [mPa·s]
303.15 K	1008.83 ± 0.86 kg/m3 and 1008.8 ± 0.9 kg/m3	1519.2 ± 9.4	1.761 ± 0.023
308.15 K	1004.1 ± 0.8 kg/m3	1512.9 ± 9.3	1.602 ± 0.021
313.15 K	999.5 ± 0.8 kg/m3	1503.4 ± 9.3	1.489 ± 0.02

ClCCCl [1,2-dichloroethane] + N#CCc1ccccc1
[1], x2 = 0
Settings	mass density [kg/m3]	speed of sound [m/s]	viscosity [mPa·s]
303.15 K	1238.7 ± 0.4	1174 ± 7.1	0.7237 ± 0.012
308.15 K	1230.5 ± 0.4	1164.8 ± 7.1	0.6737 ± 0.011
313.15 K	1223.7 ± 0.4	1153.5 ± 7	0.6419 ± 0.011

ClC=C(Cl)Cl [trichloroethene] + N#CCc1ccccc1
[1], x2 = 0
Settings	mass density [kg/m3]	speed of sound [m/s]	viscosity [mPa·s]
303.15 K	1447.5 ± 0.6	1014.7 ± 6.2	0.5172 ± 0.011
308.15 K	1437.8 ± 0.6	993.7 ± 6.1	0.4992 ± 0.011
313.15 K	1430.4 ± 0.6	982 ± 6	0.4833 ± 0.011

ClC(Cl)C(Cl)Cl [1,1,2,2-tetrachloroethane]
[2]
Settings	mass density [kg/m3]	speed of sound [m/s]	viscosity [mPa·s]
298.15 K	1586.8 ± 1.4	–	–
303.15 K	1579.6 ± 1.4	1134.7 ± 7	1.456 ± 0.017
308.15 K	1570.6 ± 1.4	1115.5 ± 6.9	1.354 ± 0.017
313.15 K	1563.7 ± 1.4	1095.5 ± 6.8	1.261 ± 0.016
